Assays:
Assay in all cases: KINOMEscan competition binding
Details in all cases: compound 10.0 µM
[1] = test system: ABL1 (human), P00519 [E255K]
[2] = test system: ABL1 (human), P00519 [M351T]
[3] = test system: ABL1 (human), P00519 [Q252H]
[4] = test system: ABL1 (human), P00519 [Y253F]
BLK (human) = BLK (human) (UniProt P51451)
CAMK1D (human) = CAMK1D (human) (UniProt Q8IU85)
CDK17 (human) = CDK17 (human) (UniProt Q00537)
CDK19 (human) = CDK19 (human) (UniProt Q9BWU1)
CDK2 (human) = CDK2 (human) (UniProt P24941)
CDK9 (human) = CDK9 (human) (UniProt P50750)
CDKL2 (human) = CDKL2 (human) (UniProt Q92772)
CSK (human) = CSK (human) (UniProt P41240)
DDR1 (human) = DDR1 (human) (UniProt Q08345)
DDR2 (human) = DDR2 (human) (UniProt Q16832)
[5] = test system: EGFR (human), P00533 [746-750 del]
[6] = test system: EGFR (human), P00533 [G719C]
[7] = test system: EGFR (human), P00533 [G719S]
[8] = test system: EGFR (human), P00533 [L858R]
[9] = test system: EGFR (human), P00533 [L861Q]
[10] = test system: EGFR (human), P00533 [P753S; 747-752 del]
EPHA2 (human) = EPHA2 (human) (UniProt P29317)
EPHA4 (human) = EPHA4 (human) (UniProt P54764)
[11] = test system: FLT3 (human), P36888 [D835H]
[12] = test system: FLT3 (human), P36888 [ITD]
[13] = test system: FLT3 (human), P36888 [N841I]
GAK (human) = GAK (human) (UniProt O14976)
KDR (human) = KDR (human) (UniProt P35968)
MAP4K1 (human) = MAP4K1 (human) (UniProt Q92918)
MAPK13 (human) = MAPK13 (human) (UniProt O15264)
MAPK9 (human) = MAPK9 (human) (UniProt P45984)
NTRK3 (human) = NTRK3 (human) (UniProt Q16288)
PDGFRB (human) = PDGFRB (human) (UniProt P09619)
PRKCE (human) = PRKCE (human) (UniProt Q02156)
PTK6 (human) = PTK6 (human) (UniProt Q13882)
RET (human) = RET (human) (UniProt P07949)
[14] = test system: RET (human), P07949 [M918T]
RIPK1 (human) = RIPK1 (human) (UniProt Q13546)
SYK (human) = SYK (human) (UniProt P43405)
TAOK1 (human) = TAOK1 (human) (UniProt Q7L7X3)
TNK1 (human) = TNK1 (human) (UniProt Q13470)
[15] = biological target: TYK2 JH1 catalytic (human) (UniProt P29597)
TYK2 JH1 catalytic (human), sequence (P29597 whole entry, looked up): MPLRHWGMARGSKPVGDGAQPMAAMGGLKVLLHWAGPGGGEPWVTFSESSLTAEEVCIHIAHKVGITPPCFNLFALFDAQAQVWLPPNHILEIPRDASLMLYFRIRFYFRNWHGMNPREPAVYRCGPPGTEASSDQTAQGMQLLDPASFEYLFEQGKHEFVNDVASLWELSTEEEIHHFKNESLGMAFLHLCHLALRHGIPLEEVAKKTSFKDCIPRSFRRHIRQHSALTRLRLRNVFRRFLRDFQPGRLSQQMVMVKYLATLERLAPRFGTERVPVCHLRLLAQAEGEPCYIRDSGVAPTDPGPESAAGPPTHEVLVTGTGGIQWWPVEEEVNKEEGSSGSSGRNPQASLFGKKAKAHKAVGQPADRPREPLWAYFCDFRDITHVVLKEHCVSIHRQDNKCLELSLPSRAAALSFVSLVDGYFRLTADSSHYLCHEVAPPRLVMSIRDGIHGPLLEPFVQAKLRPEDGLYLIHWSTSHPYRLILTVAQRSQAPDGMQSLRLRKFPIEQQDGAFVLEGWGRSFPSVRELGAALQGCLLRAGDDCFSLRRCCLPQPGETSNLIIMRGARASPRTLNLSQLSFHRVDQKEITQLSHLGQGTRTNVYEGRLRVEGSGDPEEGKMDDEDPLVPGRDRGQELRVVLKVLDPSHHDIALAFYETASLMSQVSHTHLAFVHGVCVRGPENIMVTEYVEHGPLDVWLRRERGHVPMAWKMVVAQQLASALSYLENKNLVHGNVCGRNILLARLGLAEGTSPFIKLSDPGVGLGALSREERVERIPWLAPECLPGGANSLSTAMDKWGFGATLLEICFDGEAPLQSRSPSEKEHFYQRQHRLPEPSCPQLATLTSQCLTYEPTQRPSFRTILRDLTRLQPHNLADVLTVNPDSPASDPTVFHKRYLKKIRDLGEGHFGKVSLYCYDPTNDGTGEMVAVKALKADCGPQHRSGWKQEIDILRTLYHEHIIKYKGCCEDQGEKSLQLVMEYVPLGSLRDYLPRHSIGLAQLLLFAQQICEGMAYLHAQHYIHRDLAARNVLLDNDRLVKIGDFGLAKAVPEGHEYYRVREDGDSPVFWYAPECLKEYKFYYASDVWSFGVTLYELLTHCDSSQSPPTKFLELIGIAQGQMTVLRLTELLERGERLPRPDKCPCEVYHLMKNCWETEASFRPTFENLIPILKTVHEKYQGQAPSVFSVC

TAOK1 (human), sequence (Q7L7X3 whole entry, looked up): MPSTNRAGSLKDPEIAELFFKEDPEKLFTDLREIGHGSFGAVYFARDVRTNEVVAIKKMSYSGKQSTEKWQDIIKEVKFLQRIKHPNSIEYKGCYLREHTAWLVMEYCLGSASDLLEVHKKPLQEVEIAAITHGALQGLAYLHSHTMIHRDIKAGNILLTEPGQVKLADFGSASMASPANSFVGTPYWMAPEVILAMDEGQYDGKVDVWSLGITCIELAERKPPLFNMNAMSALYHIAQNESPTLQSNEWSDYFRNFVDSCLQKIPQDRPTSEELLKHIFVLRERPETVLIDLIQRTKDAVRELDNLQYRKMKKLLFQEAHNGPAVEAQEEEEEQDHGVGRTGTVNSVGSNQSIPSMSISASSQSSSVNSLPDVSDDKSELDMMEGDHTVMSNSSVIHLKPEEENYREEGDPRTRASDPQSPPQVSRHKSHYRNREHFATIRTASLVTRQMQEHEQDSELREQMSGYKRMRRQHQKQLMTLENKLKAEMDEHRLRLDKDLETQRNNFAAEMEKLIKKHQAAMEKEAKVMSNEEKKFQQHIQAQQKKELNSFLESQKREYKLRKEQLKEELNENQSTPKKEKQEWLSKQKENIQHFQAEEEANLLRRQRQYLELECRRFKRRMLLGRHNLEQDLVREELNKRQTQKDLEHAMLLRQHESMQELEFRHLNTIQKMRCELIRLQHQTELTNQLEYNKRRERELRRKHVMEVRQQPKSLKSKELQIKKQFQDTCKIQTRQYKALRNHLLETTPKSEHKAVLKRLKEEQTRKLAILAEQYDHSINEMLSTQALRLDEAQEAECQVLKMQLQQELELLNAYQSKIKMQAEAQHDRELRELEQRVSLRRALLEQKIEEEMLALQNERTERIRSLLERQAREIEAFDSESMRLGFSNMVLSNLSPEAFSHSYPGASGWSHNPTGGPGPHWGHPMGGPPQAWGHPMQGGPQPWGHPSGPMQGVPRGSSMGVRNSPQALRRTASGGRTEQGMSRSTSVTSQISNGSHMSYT
MAP4K1 (human), sequence (Q92918 whole entry, looked up): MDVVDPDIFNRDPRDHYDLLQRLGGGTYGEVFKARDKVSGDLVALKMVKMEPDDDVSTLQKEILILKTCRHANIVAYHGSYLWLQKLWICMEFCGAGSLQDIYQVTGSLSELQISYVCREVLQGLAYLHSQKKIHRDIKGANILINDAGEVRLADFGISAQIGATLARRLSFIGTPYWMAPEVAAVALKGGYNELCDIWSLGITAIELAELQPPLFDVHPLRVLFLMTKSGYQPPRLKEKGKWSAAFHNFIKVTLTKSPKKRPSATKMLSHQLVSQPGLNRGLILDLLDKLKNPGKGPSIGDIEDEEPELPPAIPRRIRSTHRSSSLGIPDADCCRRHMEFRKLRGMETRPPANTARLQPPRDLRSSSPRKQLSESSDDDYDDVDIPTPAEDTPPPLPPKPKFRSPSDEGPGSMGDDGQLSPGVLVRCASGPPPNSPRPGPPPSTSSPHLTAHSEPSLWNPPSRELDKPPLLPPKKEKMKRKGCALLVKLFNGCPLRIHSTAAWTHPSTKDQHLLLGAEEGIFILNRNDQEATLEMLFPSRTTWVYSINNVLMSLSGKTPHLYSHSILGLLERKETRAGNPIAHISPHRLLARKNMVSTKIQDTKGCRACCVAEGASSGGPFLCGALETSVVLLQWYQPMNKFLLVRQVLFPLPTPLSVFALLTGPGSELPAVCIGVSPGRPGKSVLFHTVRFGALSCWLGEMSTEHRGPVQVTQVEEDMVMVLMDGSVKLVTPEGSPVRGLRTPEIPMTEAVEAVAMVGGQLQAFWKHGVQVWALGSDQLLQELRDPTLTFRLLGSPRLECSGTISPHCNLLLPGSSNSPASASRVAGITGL
CDK9 (human), sequence (P50750 whole entry, looked up): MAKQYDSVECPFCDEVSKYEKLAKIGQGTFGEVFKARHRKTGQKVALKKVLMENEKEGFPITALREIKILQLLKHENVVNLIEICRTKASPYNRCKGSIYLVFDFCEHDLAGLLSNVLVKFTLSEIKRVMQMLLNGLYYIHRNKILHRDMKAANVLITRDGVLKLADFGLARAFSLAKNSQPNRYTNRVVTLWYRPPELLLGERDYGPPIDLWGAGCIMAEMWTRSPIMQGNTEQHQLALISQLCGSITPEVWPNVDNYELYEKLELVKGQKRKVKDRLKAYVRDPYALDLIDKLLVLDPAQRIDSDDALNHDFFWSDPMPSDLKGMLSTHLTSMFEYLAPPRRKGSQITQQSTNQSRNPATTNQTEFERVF
EPHA4 (human), sequence (P54764 whole entry, looked up): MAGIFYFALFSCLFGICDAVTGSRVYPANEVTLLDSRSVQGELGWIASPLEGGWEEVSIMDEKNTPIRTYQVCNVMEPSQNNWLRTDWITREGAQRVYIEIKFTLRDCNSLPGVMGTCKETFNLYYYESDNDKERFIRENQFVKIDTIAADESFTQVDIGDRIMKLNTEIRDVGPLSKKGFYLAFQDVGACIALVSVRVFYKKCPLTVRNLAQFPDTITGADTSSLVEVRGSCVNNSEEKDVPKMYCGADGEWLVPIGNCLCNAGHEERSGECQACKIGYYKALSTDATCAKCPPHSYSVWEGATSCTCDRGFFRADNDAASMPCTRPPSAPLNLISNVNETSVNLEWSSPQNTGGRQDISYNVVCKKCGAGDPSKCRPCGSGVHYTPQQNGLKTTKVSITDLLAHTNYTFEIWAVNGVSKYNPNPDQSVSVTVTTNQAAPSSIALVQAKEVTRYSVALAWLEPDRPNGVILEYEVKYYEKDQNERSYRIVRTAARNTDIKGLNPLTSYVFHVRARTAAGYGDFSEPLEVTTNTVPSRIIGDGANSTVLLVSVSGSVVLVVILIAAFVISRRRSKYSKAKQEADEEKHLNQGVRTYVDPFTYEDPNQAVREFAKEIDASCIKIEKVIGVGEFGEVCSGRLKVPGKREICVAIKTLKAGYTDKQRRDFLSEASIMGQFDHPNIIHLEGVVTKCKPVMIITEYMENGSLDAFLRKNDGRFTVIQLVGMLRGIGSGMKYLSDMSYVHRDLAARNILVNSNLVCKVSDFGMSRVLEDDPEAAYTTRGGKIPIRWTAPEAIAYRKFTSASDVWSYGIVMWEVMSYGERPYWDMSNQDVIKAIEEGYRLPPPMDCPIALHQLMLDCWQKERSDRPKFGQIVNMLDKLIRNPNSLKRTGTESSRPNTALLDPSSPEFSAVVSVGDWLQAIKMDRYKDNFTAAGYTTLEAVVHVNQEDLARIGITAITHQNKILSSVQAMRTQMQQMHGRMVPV
BLK (human), sequence (P51451 whole entry, looked up): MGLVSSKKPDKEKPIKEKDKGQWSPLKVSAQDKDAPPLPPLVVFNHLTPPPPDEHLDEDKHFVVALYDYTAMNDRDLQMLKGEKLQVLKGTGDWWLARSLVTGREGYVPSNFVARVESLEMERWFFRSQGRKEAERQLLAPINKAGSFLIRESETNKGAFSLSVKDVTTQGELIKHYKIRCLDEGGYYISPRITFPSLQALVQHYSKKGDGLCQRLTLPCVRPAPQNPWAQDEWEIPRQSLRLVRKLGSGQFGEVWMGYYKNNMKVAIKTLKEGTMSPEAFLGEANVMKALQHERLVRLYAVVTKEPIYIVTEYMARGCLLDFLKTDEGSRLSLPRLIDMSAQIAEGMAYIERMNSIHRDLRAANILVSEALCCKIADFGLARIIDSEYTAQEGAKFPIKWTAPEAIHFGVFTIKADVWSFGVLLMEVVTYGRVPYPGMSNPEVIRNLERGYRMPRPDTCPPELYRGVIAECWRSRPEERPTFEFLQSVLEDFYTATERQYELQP

CCN1CCN(Cc2ccc(NC(=O)c3ccc(C)c(Oc4ccnc5[nH]ccc45)c3)cc2C(F)(F)F)CC1
kinase still bound, per cent of control [1]: 1.2%
kinase still bound, per cent of control [2]: 0.35%
kinase still bound, per cent of control [3]: 0.4%
kinase still bound, per cent of control [4]: 1.1%
kinase still bound, per cent of control (BLK (human)): 0.45%
kinase still bound, per cent of control (CAMK1D (human)): 6.2%
residual activity (CDK17 (human)): 0.1%
residual activity (CDK19 (human)): 0.1%
residual activity (CDK2 (human)): 11%
residual activity (CDK9 (human)): 5.8%
residual activity (CDKL2 (human)): 0.9%
kinase still bound, per cent of control (CSK (human)): 0.45%
kinase still bound, per cent of control (DDR1 (human)): 0.05%
kinase still bound, per cent of control (DDR2 (human)): 5.1%
kinase still bound, per cent of control [5]: 8.4%
kinase still bound, per cent of control [6]: 12%
kinase still bound, per cent of control [7]: 14%
kinase still bound, per cent of control [8]: 14%
kinase still bound, per cent of control [9]: 15%
kinase still bound, per cent of control [10]: 1.2%
kinase still bound, per cent of control (EPHA2 (human)): 3.1%
kinase still bound, per cent of control (EPHA4 (human)): 5.8%
kinase still bound, per cent of control [11]: 1.2%
kinase still bound, per cent of control [12]: 0.7%
kinase still bound, per cent of control [13]: 0%
kinase still bound, per cent of control (GAK (human)): 31%
kinase still bound, per cent of control (KDR (human)): 1.5%
kinase still bound, per cent of control (MAP4K1 (human)): 1.6%
kinase still bound, per cent of control (MAPK13 (human)): 0.55%
kinase still bound, per cent of control (MAPK9 (human)): 0%
kinase still bound, per cent of control (NTRK3 (human)): 3.8%
kinase still bound, per cent of control (PDGFRB (human)): 0%
kinase still bound, per cent of control (PRKCE (human)): 20%
kinase still bound, per cent of control (PTK6 (human)): 28%
kinase still bound, per cent of control (RET (human)): 0%
kinase still bound, per cent of control [14]: 0%
kinase still bound, per cent of control (RIPK1 (human)): 0%
kinase still bound, per cent of control (SYK (human)): 6.2%
kinase still bound, per cent of control (TAOK1 (human)): 3%
kinase still bound, per cent of control (TNK1 (human)): 0.35%
kinase still bound, per cent of control [15]: 0%

Reference: the kinase profiling compilation of Christmann-Franck et al. (2016)
